Entries after “also recorded” stand apart in the source; their conditions may differ.
Assays:
SLC2A3 = assay: Compound uptake in HEK293 expressing solute carrier family 2 member 3; assay type: cell-based
Experimental: HEK293 cells are cultured and seeded at ~60% confluency in 24-well plates and are transiently transfected with 250 ng of a candidate transporter and 1 μL transfection reagent (JetPRIME). After 2 days, cells are washed and novel fluorescent probes at different concentrations are added to the transport medium and incubated at 37° C., for at least 30 minutes. To terminate the transport, cells are washed with PBS and fixed with 4% paraformaldehyde. The colocalization of probe uptake and cells expressing the transporters is investigated by immunostaining the transporter which has a fused FLAG tag, using anti-FLAG 488. Before confocal imaging, nuclei are labeled with Hoechst 33342 and cells are mounted and imaged on a Leica SP8 confocal microscope.
For in vitro experiments, HEK293 cells were cultured and seeded in 24-well plates, reaching approximately 60% confluency. For transient transfection, 250 ng of a candidate transporter plasmid and 1 μL of transfection reagent (JetPRIME) were added to the cells. After a 2-day incubation period, the cells were washed, and novel fluorescent probes were introduced into the transport medium at various concentrations. The cells were then incubated at 37° C., for a minimum of 30 minutes to allow for uptake. To stop the transport process, the cells were washed with PBS and fixed using 4% paraformaldehyde. […]

[1] = test system: brain endothelium / blood brain barrier; assay: In vivo two-photon imaging of mouse brain cortex after intravenous administration
Experimental: Briefly, animals are anaesthetized via intraperitoneal injections of ketamine/xylazine or via inhaled isoflurane. A region of the skull (3×3 mm) is gently removed with a high-speed drill and the underlying dura is removed. A small glass coverslip is placed over the skull to allow long term optical access for in vivo imaging. Labeling with fluorescent dyes is performed either via intravenous injections or topically application to the cortical surface for 20 min prior to glass cover placement. After recovery, in vivo images are acquired using a two-photon microscope (Bruker Technologies) equipped with a multimodal (fixed wavelength 1040 nm and tunable wavelength) InSight X3 two-photon laser (Spectra Physics) and 20× water immersion objective (Zeiss 1.0N.A.). The two-photon laser is appropriately tuned to excite particular fluorescent dyes and proteins as needed. In selected cases, following in vivo imaging, mice will be sacrificed and perfused for follow up immunohistochemistry and high-resolution confocal imaging (Leica SP8) to further confirm colocalization of dyes and cells expressing particular transporters.
One-month-old wild-type mice were anesthetized using a ketamine/xylazine solution at doses of 100 mg/kg and 10 mg/kg, respectively. The fur around the skull area was shaved, and buprenex (0.1 mg per kg) and carprofen (5 mg per kg) were administered subcutaneously. Mice were kept on a heating pad at 37° C., and anesthesia was periodically monitored. The skin was treated with povidone-iodine solution, followed by cleaning with ethanol, and eye ointment was applied. A small skin section was excised to expose the skull. Thinning of the skull was performed in a circular area, followed by delicately lifting of the remaining skull without harm to the underlying brain. Within the circular region, the dura was gently removed using fine forceps, and a 4 mm cover glass was softly pressed onto the brain surface and affixed to the skull. Fluorescent dyes were applied either through intravenous injections or topically to the cortical surface for 20 minutes before placing the glass cover. A customized head bar was attached either by adhesive (for acute imaging) or permanently implanted (using dental cement, for chronic imaging) onto the skull. Mice were imaged under a two-photon microscope (Prairie Technologies) with a mode-locked MaiTai tunable laser (Spectra Physics). Imaging was performed with a 20× water immersion objective (Zeiss, 1.0NA). Images were captured at depths up to 300 μm from the pial surface using excitation wavelengths ranging from 750 to 950 nm as previously described. Mice undergoing chronic imaging received a recovery period on a heating pad post-surgery, and buprenex (0.1 mg per kg) and carprofen (5 mg per kg) were administered for 3 days. […]

[2] = test system: cancer cells in freshly excised breast surgical tissue; assay: Injection into freshly excised cancerous breast tissue
Description: Injection of compound 1 into freshly excised cancerous breast tissue leads to rapid entry into cancer cells (red). Blue represents nuclear labeling with Hoechst dye.

NIH3T3 cells = assay: Assessment of pharmacological effects in vitro in NIH3T3 cells (tubulin staining, multinucleated cells); assay type: cell-based
Description: Confocal microscopy of the different treatment groups allowed us to visualize Hoechst dye-labeled nuclei to quantify the proportion of cells with multinucleated phenotype which is known to occur with Colchicine treatments.

brain cell types = assay: In vivo two-photon imaging of mouse cortex after topical cortical administration of fluorophores; settings: topical cortical administration 50 μM, Tie2-GFP endothelial reporter mice

For `O=S(=O)([O-])c1cc(S(=O)(=O)O)ccc1C1=c2cc3c4c(c2Oc2cc(Br)ccc21)CCC[N+]=4CCC3` [Compound 1, 2-(12-bromo-1,2,3,5,6,7-hexahydrochromeno[2,3-f]pyrido[3,2,1-ij]quinolin-4-ium-9-yl)-5-sulfobenzenesulfonate], the “uptake on expression of SLC2A3” value (SLC2A3) was “does not induce uptake”, the “entry into non-endothelial cells” value ([1]; 2 hours post intravenous injection) was “does not enter non-endothelial cells; also recorded: does not enter other cells except for endothelial cells” and the “brain endothelial labeling after intravenous administration” value ([1]; IV 50 microliters at 20 mg/ml, 10 min to 130 min post injection) was “marked uptake of the compound into the capillary endothelial wall; also recorded: robust brain endothelial labeling”. The “interstitial space fluorescence / blood brain barrier crossing” value ([1]; IV, 10 min vs 130 min or 2 hours post injection) was “located in the brain interstitial space; also recorded: marked increase in the interstitial space fluorescence”, the “punctate labeling in the endothelium” value ([1]; lower concentration IV in 120 μL of PBS, around 2 hours post injection) was “bright punctate labeling becomes apparent in the endothelium” and the “entry into breast cancer cells” value [2] was “readily enters cancer cells”.

With `COc1cc2c(c(OC)c1OC)-c1ccc(OC)c(=O)cc1C(NS(=O)(=O)c1ccc(-c3c4ccc(N(C)C)cc4[o+]c4cc(N(C)C)ccc34)c(S(=O)(=O)[O-])c1)CC2` (stereo not shown) [Compound 47, 2-(3,6-bis(dimethylamino)xanthylium-9-yl)-5-(N-(1,2,3,10-tetramethoxy-9-oxo-5,6,7,9-tetrahydrobenzo[a]heptalen-7-yl)sulfamoyl)benzenesulfonate] the “preservation of pharmacological properties after conjugation” value (NIH3T3 cells; NIH3T3 cells) was “retains its pharmacological properties”, the “cell morphology / multinucleated cells” value (NIH3T3 cells; NIH3T3 cells (FIG. 17A)) was “changes in cell morphology and presence of multinucleated cells” and the “pattern of α-tubulin immunofluorescence” value (NIH3T3 cells; NIH3T3 cells, 12 hours, varying concentrations (FIG. 17A)) was “diffuse labeling pattern”. For the same compound, the “colocalization with GFP labeling” value (brain cell types) was “precise colocalization between Colchicine-eEDiTS and GFP labeling”.

— patent publication US20260272895A1, “METHODS AND KITS FOR DELIVERY OF COMPOUNDS INTO CELLS” (Yale University, priority 2023, published 2026)
